#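 How tested: cells in 96-well plates exposed to compound for 48 hours at five concentrations. TGI marks complete inhibition of growth.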
# What was measured:
# Experiment in all cases: inhibition of tumour cell growth, NCI panel, 48 h
# 786-0 renal = tested on: 786-0 renal
# A498 renal = tested on: A498 renal
# A549 NSCLC = tested on: A549 NSCLC
# ACHN renal = tested on: ACHN renal
# CAKI-1 renal = tested on: CAKI-1 renal
# CCRF-CEM leukemia = tested on: CCRF-CEM leukemia
# COLO 205 colon = tested on: COLO 205 colon
# DLD-1 colon = tested on: DLD-1 colon
# DMS 114 small cell lung = tested on: DMS 114 small cell lung
# DMS 273 small cell lung = tested on: DMS 273 small cell lung
# EKVX NSCLC = tested on: EKVX NSCLC
# HCC-2998 colon = tested on: HCC-2998 colon
# HCT-116 colon = tested on: HCT-116 colon
# HCT-15 colon = tested on: HCT-15 colon
# HOP-18 NSCLC = tested on: HOP-18 NSCLC
# HOP-62 NSCLC = tested on: HOP-62 NSCLC
# HOP-92 NSCLC = tested on: HOP-92 NSCLC
# HT29 colon = tested on: HT29 colon
# IGROV1 ovarian = tested on: IGROV1 ovarian
# K-562 leukemia = tested on: K-562 leukemia
# KM12 colon = tested on: KM12 colon
# KM20L2 colon = tested on: KM20L2 colon
# LOX IMVI melanoma = tested on: LOX IMVI melanoma
# LXFL 529 NSCLC = tested on: LXFL 529 NSCLC
# M14 melanoma = tested on: M14 melanoma
# M19-MEL melanoma = tested on: M19-MEL melanoma
# MALME-3M melanoma = tested on: MALME-3M melanoma
# MOLT-4 leukemia = tested on: MOLT-4 leukemia
# NCI-H226 lung = tested on: NCI-H226 lung
# NCI-H23 lung = tested on: NCI-H23 lung
# NCI-H460 lung = tested on: NCI-H460 lung
# NCI-H522 lung = tested on: NCI-H522 lung
# OVCAR-3 ovarian = tested on: OVCAR-3 ovarian
# OVCAR-4 ovarian = tested on: OVCAR-4 ovarian
# OVCAR-5 ovarian = tested on: OVCAR-5 ovarian
# OVCAR-8 ovarian = tested on: OVCAR-8 ovarian
# RPMI-8226 leukemia = tested on: RPMI-8226 leukemia
# RXF 393 renal = tested on: RXF 393 renal
# RXF-631 renal = tested on: RXF-631 renal
# SF-268 CNS = tested on: SF-268 CNS
# SF-295 CNS = tested on: SF-295 CNS
# SF-539 CNS = tested on: SF-539 CNS
# SK-MEL-2 melanoma = tested on: SK-MEL-2 melanoma
# SK-MEL-28 melanoma = tested on: SK-MEL-28 melanoma
# SK-MEL-5 melanoma = tested on: SK-MEL-5 melanoma
# SK-OV-3 ovarian = tested on: SK-OV-3 ovarian
# SN12C renal = tested on: SN12C renal
# SNB-19 CNS = tested on: SNB-19 CNS
# SNB-75 CNS = tested on: SNB-75 CNS
# SNB-78 CNS = tested on: SNB-78 CNS
# SR leukemia = tested on: SR leukemia
# SW-620 colon = tested on: SW-620 colon
# TK-10 renal = tested on: TK-10 renal
# U251 CNS = tested on: U251 CNS
# UACC-257 melanoma = tested on: UACC-257 melanoma
# UACC-62 melanoma = tested on: UACC-62 melanoma
# UO-31 renal = tested on: UO-31 renal
# XF 498 CNS = tested on: XF 498 CNS
smiles,measurement,setting,value
O=C(/C=C/c1ccccc1O)C(c1ccccc1)c1ccccc1,TGI,786-0 renal,> 100 µM
same,TGI,A498 renal,> 100 µM
same,TGI,A549 NSCLC,> 100 µM
same,TGI,ACHN renal,> 100 µM
same,TGI,CAKI-1 renal,> 100 µM
same,TGI,CCRF-CEM leukemia,> 100 µM
same,TGI,COLO 205 colon,> 100 µM
same,TGI,DLD-1 colon,> 100 µM
same,TGI,DMS 114 small cell lung,> 100 µM
same,TGI,DMS 273 small cell lung,> 100 µM
same,TGI,EKVX NSCLC,> 100 µM
same,TGI,HCC-2998 colon,> 100 µM
same,TGI,HCT-116 colon,> 100 µM
same,TGI,HCT-15 colon,> 100 µM
same,TGI,HOP-18 NSCLC,> 100 µM
same,TGI,HOP-62 NSCLC,> 100 µM
same,TGI,HOP-92 NSCLC,> 100 µM
same,TGI,HT29 colon,> 100 µM
same,TGI,IGROV1 ovarian,> 100 µM
same,TGI,K-562 leukemia,> 100 µM
same,TGI,KM12 colon,> 100 µM
same,TGI,KM20L2 colon,> 100 µM
same,TGI,LOX IMVI melanoma,62.3 µM
same,TGI,LXFL 529 NSCLC,> 100 µM
same,TGI,M14 melanoma,> 100 µM
same,TGI,M19-MEL melanoma,> 100 µM
same,TGI,MALME-3M melanoma,> 100 µM
same,TGI,MOLT-4 leukemia,> 100 µM
same,TGI,NCI-H226 lung,> 100 µM
same,TGI,NCI-H23 lung,> 100 µM
same,TGI,NCI-H460 lung,> 100 µM
same,TGI,NCI-H522 lung,> 100 µM
same,TGI,OVCAR-3 ovarian,> 100 µM
same,TGI,OVCAR-4 ovarian,> 100 µM
same,TGI,OVCAR-5 ovarian,> 100 µM
same,TGI,OVCAR-8 ovarian,> 100 µM
same,TGI,RPMI-8226 leukemia,> 100 µM
same,TGI,RXF 393 renal,> 100 µM
same,TGI,RXF-631 renal,> 100 µM
same,TGI,SF-268 CNS,> 100 µM
same,TGI,SF-295 CNS,> 100 µM
same,TGI,SF-539 CNS,> 100 µM
same,TGI,SK-MEL-2 melanoma,> 100 µM
same,TGI,SK-MEL-28 melanoma,> 100 µM
same,TGI,SK-MEL-5 melanoma,> 100 µM
same,TGI,SK-OV-3 ovarian,> 100 µM
same,TGI,SN12C renal,> 100 µM
same,TGI,SNB-19 CNS,> 100 µM
same,TGI,SNB-75 CNS,75.1 µM
same,TGI,SNB-78 CNS,> 100 µM
same,TGI,SR leukemia,> 100 µM
same,TGI,SW-620 colon,27.6 µM
same,TGI,TK-10 renal,> 100 µM
same,TGI,U251 CNS,> 100 µM
same,TGI,UACC-257 melanoma,> 100 µM
same,TGI,UACC-62 melanoma,> 100 µM
same,TGI,UO-31 renal,> 100 µM
same,TGI,XF 498 CNS,> 100 µM

# From PubChem BioAssay (NCI)
